Experimental data: ChEMBL document CHEMBL2417394, “Exquisite selectivity for human toll-like receptor 8 in substituted furo[2,3-c]quinolines” (J Med Chem, 2013)
Calls of active or inactive are those of the source. The rule behind the calls is not given here.

Legend:
[1] = target: Toll-like receptor 3 (Homo sapiens) (UniProt O15455); assay: Modulation of human TLR3 expressed in HEK293 cells co-transfected with MD2 and sAP assessed as induction of NF-kappaB activity by reporter gene assay; format: cell-based
Chain of Toll-like receptor 3 (Homo sapiens) (O15455 whole entry, the tested form may be a part): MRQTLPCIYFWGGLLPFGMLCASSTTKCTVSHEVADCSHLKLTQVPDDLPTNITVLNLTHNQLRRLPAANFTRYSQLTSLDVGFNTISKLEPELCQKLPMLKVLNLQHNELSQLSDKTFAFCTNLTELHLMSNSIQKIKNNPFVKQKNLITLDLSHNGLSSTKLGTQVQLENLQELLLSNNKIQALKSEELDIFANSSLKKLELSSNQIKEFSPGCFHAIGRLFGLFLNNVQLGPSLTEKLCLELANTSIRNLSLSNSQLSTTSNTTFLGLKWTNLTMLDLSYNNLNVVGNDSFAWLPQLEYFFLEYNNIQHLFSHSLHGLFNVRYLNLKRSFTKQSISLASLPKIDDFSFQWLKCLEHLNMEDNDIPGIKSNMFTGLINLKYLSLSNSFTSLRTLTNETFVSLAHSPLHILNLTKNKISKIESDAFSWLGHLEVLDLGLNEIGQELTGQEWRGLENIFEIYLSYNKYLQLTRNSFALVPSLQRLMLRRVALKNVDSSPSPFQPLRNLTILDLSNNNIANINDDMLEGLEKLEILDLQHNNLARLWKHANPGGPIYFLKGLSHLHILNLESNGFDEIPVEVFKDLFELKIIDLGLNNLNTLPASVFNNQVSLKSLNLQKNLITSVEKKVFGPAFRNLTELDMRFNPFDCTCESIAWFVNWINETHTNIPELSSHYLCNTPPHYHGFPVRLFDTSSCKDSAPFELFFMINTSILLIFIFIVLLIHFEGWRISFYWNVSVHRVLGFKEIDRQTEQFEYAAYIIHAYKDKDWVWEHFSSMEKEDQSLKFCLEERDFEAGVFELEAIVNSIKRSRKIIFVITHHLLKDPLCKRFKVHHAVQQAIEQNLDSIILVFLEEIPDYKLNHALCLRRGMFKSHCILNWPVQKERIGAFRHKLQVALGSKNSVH

[2] = target: Nucleotide-binding oligomerization domain-containing protein 2 (Homo sapiens) (UniProt Q9HC29); assay: Modulation of NOD2 (unknown origin)
Chain of Nucleotide-binding oligomerization domain-containing protein 2 (Homo sapiens) (Q9HC29 whole entry, the tested form may be a part): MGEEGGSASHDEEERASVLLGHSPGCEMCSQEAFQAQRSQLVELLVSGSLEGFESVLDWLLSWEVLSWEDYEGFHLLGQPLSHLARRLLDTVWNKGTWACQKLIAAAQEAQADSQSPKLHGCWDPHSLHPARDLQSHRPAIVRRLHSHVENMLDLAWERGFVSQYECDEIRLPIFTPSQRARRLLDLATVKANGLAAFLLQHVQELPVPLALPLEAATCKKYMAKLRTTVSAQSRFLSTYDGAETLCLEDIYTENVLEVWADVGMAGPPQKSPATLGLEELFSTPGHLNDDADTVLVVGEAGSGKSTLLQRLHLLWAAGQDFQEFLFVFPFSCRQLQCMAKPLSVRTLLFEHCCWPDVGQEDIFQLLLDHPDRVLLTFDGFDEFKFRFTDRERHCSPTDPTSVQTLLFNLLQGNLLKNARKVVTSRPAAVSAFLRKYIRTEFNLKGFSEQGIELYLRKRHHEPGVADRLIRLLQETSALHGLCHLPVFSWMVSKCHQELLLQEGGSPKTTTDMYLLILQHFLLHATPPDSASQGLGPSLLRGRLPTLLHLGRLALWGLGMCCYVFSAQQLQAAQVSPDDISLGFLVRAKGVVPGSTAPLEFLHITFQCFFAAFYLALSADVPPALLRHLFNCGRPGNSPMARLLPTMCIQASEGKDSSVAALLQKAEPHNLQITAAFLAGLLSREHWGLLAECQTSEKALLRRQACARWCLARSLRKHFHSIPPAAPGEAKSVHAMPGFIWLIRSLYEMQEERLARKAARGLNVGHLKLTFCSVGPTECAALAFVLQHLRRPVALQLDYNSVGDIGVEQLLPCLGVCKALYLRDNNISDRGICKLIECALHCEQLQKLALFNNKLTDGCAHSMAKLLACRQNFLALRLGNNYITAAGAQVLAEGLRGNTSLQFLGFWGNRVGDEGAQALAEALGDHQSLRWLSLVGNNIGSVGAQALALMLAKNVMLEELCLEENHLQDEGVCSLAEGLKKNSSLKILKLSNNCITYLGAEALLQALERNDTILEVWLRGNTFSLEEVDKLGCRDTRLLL

[3] = target: T1, Toll-like receptor 8 (Homo sapiens) (UniProt Q9NR97); assay: Modulation of human TLR8 expressed in HEK293 cells co-transfected with MD2 and sAP assessed as induction of NF-kappaB activity by reporter gene assay; format: cell-based
T1 sequence (whole entry): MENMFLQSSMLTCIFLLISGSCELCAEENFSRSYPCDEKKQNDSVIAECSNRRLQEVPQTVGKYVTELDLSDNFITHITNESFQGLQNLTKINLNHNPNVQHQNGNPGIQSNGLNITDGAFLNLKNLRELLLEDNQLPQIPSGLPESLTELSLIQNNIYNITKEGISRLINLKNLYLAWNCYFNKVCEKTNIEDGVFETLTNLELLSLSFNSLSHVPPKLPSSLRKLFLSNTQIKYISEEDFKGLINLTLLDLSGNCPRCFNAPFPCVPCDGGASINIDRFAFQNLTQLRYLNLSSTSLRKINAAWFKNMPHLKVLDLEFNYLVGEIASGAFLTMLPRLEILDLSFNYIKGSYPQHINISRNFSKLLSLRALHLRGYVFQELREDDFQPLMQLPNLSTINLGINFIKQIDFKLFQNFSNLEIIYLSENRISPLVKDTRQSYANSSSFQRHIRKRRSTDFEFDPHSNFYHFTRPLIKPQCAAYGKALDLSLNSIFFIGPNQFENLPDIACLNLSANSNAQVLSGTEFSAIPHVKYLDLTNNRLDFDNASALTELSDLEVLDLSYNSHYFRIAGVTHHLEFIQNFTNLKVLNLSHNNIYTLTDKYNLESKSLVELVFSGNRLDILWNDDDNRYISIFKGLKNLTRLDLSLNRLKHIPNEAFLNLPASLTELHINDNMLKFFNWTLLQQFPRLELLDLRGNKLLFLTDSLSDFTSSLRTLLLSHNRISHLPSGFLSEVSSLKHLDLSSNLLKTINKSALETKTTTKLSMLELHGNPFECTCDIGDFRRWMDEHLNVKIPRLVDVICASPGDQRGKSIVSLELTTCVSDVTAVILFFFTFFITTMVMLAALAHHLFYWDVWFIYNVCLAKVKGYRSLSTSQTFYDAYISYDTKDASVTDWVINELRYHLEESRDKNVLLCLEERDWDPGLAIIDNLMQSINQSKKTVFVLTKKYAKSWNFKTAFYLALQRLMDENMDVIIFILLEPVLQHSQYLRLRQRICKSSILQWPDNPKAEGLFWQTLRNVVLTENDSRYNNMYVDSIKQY

[4] = target: T2, Toll-like receptor 9 (Homo sapiens) (UniProt Q9NR96); assay: Modulation of human TLR9 expressed in HEK293 cells co-transfected with MD2 and sAP assessed as induction of NF-kappaB activity by reporter gene assay; format: cell-based
T2 sequence (whole entry): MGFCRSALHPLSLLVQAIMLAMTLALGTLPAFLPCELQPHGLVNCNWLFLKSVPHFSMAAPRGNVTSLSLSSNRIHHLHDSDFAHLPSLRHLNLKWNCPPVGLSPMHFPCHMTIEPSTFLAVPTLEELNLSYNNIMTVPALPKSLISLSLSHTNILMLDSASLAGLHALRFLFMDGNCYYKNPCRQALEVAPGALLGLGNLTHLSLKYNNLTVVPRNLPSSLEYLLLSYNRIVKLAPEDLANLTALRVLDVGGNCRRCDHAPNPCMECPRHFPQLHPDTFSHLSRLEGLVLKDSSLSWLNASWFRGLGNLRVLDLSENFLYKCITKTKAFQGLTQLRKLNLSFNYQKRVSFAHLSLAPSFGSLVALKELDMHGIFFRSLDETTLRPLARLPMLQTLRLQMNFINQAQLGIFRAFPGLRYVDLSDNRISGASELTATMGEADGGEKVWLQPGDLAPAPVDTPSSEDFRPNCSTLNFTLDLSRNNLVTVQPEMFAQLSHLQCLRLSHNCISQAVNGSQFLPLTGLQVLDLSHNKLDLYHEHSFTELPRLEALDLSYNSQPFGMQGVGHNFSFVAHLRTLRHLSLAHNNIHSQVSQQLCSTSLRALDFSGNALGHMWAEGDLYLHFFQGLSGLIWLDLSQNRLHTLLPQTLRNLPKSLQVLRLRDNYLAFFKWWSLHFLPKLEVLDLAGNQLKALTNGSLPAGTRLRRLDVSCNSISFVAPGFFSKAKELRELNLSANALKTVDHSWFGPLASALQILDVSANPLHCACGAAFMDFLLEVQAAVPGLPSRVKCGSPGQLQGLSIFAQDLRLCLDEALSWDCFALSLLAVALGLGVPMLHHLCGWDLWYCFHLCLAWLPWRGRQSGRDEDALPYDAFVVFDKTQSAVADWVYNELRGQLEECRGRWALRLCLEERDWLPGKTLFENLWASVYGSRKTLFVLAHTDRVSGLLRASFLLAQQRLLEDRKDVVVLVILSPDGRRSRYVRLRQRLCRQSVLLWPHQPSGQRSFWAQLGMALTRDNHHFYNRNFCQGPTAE

Compound | Activity [1] | Activity [2] | Activity [3] | Activity [4]
NCCc1cc2c(o1)c(N)nc1ccccc12 | Active | Active | Active | Active
CCCCc1cc2c(nc(N)c3ccccc32)o1 | inactive | – | inactive | inactive
